Measurements reported in PubChem BioAssay (NCI).
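Following 48 hours of exposure in 96-well plates, responses at five concentrations were used to interpolate endpoints linearly. At the GI50, growth is halved. TGI is the concentration that stops growth completely.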

What was measured:
Assay in all cases: NCI anticancer screen, dose series, 48 h
SF-295 CNS = system: SF-295 CNS
CAKI-1 renal = system: CAKI-1 renal
ACHN renal = system: ACHN renal
OVCAR-8 ovarian = system: OVCAR-8 ovarian
UO-31 renal = system: UO-31 renal
HT29 colon = system: HT29 colon
T-47D breast = system: T-47D breast
NCI/ADR-RES ovarian = system: NCI/ADR-RES ovarian
NCI-H522 lung = system: NCI-H522 lung
SK-MEL-2 melanoma = system: SK-MEL-2 melanoma
SNB-19 CNS = system: SNB-19 CNS
SK-MEL-28 melanoma = system: SK-MEL-28 melanoma
MALME-3M melanoma = system: MALME-3M melanoma
TK-10 renal = system: TK-10 renal
OVCAR-3 ovarian = system: OVCAR-3 ovarian
HCT-15 colon = system: HCT-15 colon
SK-MEL-5 melanoma = system: SK-MEL-5 melanoma
CCRF-CEM leukemia = system: CCRF-CEM leukemia
SW-620 colon = system: SW-620 colon
MDA-MB-435 = system: MDA-MB-435
RPMI-8226 leukemia = system: RPMI-8226 leukemia
PC-3 prostate = system: PC-3 prostate
BT-549 breast = system: BT-549 breast
SK-OV-3 ovarian = system: SK-OV-3 ovarian
HL-60(TB) leukemia = system: HL-60(TB) leukemia
IGROV1 ovarian = system: IGROV1 ovarian
MDA-MB-231 breast = system: MDA-MB-231 breast
U251 CNS = system: U251 CNS
OVCAR-5 ovarian = system: OVCAR-5 ovarian
HS 578T breast = system: HS 578T breast
SN12C renal = system: SN12C renal
786-0 renal = system: 786-0 renal
HCC-2998 colon = system: HCC-2998 colon
SF-539 CNS = system: SF-539 CNS
NCI-H226 lung = system: NCI-H226 lung
MOLT-4 leukemia = system: MOLT-4 leukemia
COLO 205 colon = system: COLO 205 colon
HCT-116 colon = system: HCT-116 colon
M14 melanoma = system: M14 melanoma
K-562 leukemia = system: K-562 leukemia
HOP-62 NSCLC = system: HOP-62 NSCLC
NCI-H460 lung = system: NCI-H460 lung
LOX IMVI melanoma = system: LOX IMVI melanoma
SR leukemia = system: SR leukemia
DU-145 prostate = system: DU-145 prostate
NCI-H23 lung = system: NCI-H23 lung
RXF 393 renal = system: RXF 393 renal
SF-268 CNS = system: SF-268 CNS
KM12 colon = system: KM12 colon
EKVX NSCLC = system: EKVX NSCLC
UACC-62 melanoma = system: UACC-62 melanoma
UACC-257 melanoma = system: UACC-257 melanoma
A549 NSCLC = system: A549 NSCLC
HOP-92 NSCLC = system: HOP-92 NSCLC
OVCAR-4 ovarian = system: OVCAR-4 ovarian
MCF7 breast = system: MCF7 breast
SNB-75 CNS = system: SNB-75 CNS
A498 renal = system: A498 renal

## CCO/C=N/C1=C(C#N)C(c2ccc(Cl)cc2)c2sc3c(C)cccc3c2O1 (stereo unspecified)
SF-295 CNS
  GI50: 288 nM
  TGI: 2470 nM
CAKI-1 renal
  GI50: 532 nM
  TGI: 18500 nM
ACHN renal
  GI50: 631 nM
  TGI: 15100 nM
OVCAR-8 ovarian
  GI50: 1190 nM
  TGI: 15900 nM
UO-31 renal
  GI50: 562 nM
  TGI: 17100 nM
HT29 colon
  GI50: 967 nM
  TGI: 11900 nM
T-47D breast
  GI50: 462 nM
  TGI: 29200 nM
NCI/ADR-RES ovarian
  GI50: 438 nM
  TGI: 13400 nM
NCI-H522 lung
  GI50: 398 nM
  TGI: 5050 nM
SK-MEL-2 melanoma
  GI50: 1060 nM
  TGI: 20800 nM
SNB-19 CNS
  GI50: 566 nM
  TGI: 16300 nM
SK-MEL-28 melanoma
  GI50: 2480 nM
  TGI: 22400 nM
MALME-3M melanoma
  GI50: 689 nM
  TGI: 23400 nM
TK-10 renal
  GI50: 9740 nM
  TGI: 30000 nM
OVCAR-3 ovarian
  GI50: 409 nM
  TGI: 7850 nM
HCT-15 colon
  GI50: 423 nM
  TGI: 10200 nM
SK-MEL-5 melanoma
  GI50: 845 nM
  TGI: 10400 nM
CCRF-CEM leukemia
  GI50: 371 nM
  TGI: 19400 nM
SW-620 colon
  GI50: 451 nM
  TGI: 15800 nM
MDA-MB-435
  GI50: 214 nM
  TGI: 516 nM
RPMI-8226 leukemia
  GI50: 408 nM
  TGI: 15800 nM
PC-3 prostate
  GI50: 377 nM
  TGI: 12100 nM
BT-549 breast
  GI50: 1830 nM
  TGI: 11400 nM
SK-OV-3 ovarian
  GI50: 2700 nM
  TGI: 22100 nM
HL-60(TB) leukemia
  GI50: 329 nM
  TGI: 13900 nM
IGROV1 ovarian
  GI50: 517 nM
  TGI: 15000 nM
MDA-MB-231 breast
  GI50: 2190 nM
  TGI: 15400 nM
U251 CNS
  GI50: 609 nM
  TGI: 12700 nM
OVCAR-5 ovarian
  GI50: 2370 nM
  TGI: 15500 nM
HS 578T breast
  GI50: 414 nM
  TGI: 11500 nM
SN12C renal
  GI50: 865 nM
  TGI: 12600 nM
786-0 renal
  GI50: 976 nM
  TGI: 13900 nM
HCC-2998 colon
  GI50: 1510 nM
  TGI: 8520 nM
SF-539 CNS
  GI50: 379 nM
  TGI: 1810 nM
NCI-H226 lung
  GI50: 1150 nM
  TGI: 15400 nM
MOLT-4 leukemia
  GI50: 808 nM
  TGI: > 88900 nM
COLO 205 colon
  GI50: 1990 nM
  TGI: 6930 nM
HCT-116 colon
  GI50: 448 nM
  TGI: 11100 nM
M14 melanoma
  GI50: 528 nM
  TGI: 11900 nM
K-562 leukemia
  GI50: 379 nM
  TGI: > 51300 nM
HOP-62 NSCLC
  GI50: 574 nM
  TGI: 18600 nM
NCI-H460 lung
  GI50: 406 nM
  TGI: 7660 nM
LOX IMVI melanoma
  GI50: 611 nM
  TGI: 13000 nM
SR leukemia
  GI50: 542 nM
  TGI: > 47200 nM
DU-145 prostate
  GI50: 758 nM
  TGI: 14400 nM
NCI-H23 lung
  GI50: 1330 nM
  TGI: 19200 nM
RXF 393 renal
  GI50: 275 nM
  TGI: 1330 nM
SF-268 CNS
  GI50: 1490 nM
  TGI: 19400 nM
KM12 colon
  GI50: 551 nM
  TGI: 15700 nM
EKVX NSCLC
  GI50: 604 nM
  TGI: 15600 nM
UACC-62 melanoma
  GI50: 447 nM
  TGI: 14800 nM
UACC-257 melanoma
  GI50: 12100 nM
  TGI: 32100 nM
A549 NSCLC
  GI50: 749 nM
  TGI: 15100 nM
HOP-92 NSCLC
  GI50: 188 nM
  TGI: 3760 nM
OVCAR-4 ovarian
  GI50: 1350 nM
  TGI: 19900 nM
MCF7 breast
  GI50: 327 nM
  TGI: 11600 nM
SNB-75 CNS
  GI50: 234 nM
  TGI: 1410 nM
A498 renal
  GI50: 315 nM
  TGI: 1480 nM
